Laboratory results taken from patent publication US4537777A, “A52688 Antibiotics and process for their production” (priority 1983, dated 1985).
Read-outs that look alike come from different tables or passages of the source.

What was measured:
[1] = tested on: Adenocarcinoma 755; assay: murine-transplanted tumor adenocarcinoma 755 in mice; type: in vivo
Experimental: A52688 factors A, C, D, E, F, G, H, J and K and the specified acyl esters of factors A, C, D, E, G, H, J and K are especially useful as oncolytic agents.
Table X summarizes the results of experiments in which mice bearing the murine-transplanted tumor adenocarcinoma 755 were treated with compounds of this invention. In each test the compound was administered by the intraperitoneal route at specified dose levels. The compound was administered over a ten-day period, either on a daily basis or on days one, five and nine, as indicated.

[2] = tested on: Neurospora crassa; assay: standard disc-plate assay; type: cell-based; conditions: read-out: Zone Diameters
[3] = tested on: Pseudomonas aeruginosa; assay: standard disc-plate assay; type: cell-based; conditions: read-out: Zone Diameters
[4] = tested on: Candida albicans; assay: standard disc-plate assay; type: cell-based; conditions: read-out: Zone Diameters
[5] = tested on: Pseudomonas solanacearum; assay: microbe, parasite or virus in culture; type: cell-based; conditions: Ralstonia solanacearum, read-out: Zone Diameters
[6] = tested on: Staphylococcus aureus; assay: standard disc-plate assay; type: cell-based; conditions: read-out: Zone Diameters
[7] = tested on: Proteus vulgaris; assay: standard disc-plate assay; type: cell-based; conditions: read-out: Zone Diameters
[8] = tested on: Serratia marcescens; assay: standard disc-plate assay; type: cell-based; conditions: read-out: Zone Diameters
[9] = tested on: Micrococcus luteus; assay: standard disc-plate assay; type: cell-based; conditions: read-out: Zone Diameters
[10] = tested on: Mycobacterium avium; assay: standard disc-plate assay; type: cell-based; conditions: read-out: Zone Diameters
[11] = tested on: Trichophyton mentagroprophytes; assay: standard disc-plate assay; type: cell-based; conditions: read-out: Zone Diameters
[12] = tested on: Bacillus stereothermophilus; assay: standard disc-plate assay; type: cell-based; conditions: read-out: Zone Diameters
[13] = acute toxicity in mice; conditions: mouse, in vivo, ip, intraperitoneal, formulated in aqueous PVP, read-out: Intraperitoneal LD50
Excerpt: ^a Compounds formulated in aqueous PVP
^b Route test compound administered

[14] = tested on: Salmonella gallinarium; assay: standard disc-plate assay; type: cell-based; conditions: read-out: Zone Diameters
[15] = tested on: Saccharomyces pastorianus; assay: standard disc-plate assay; type: cell-based; conditions: read-out: Zone Diameters
[16] = tested on: Escherichia coli; assay: standard disc-plate assay; type: cell-based
Experimental: In Table IX the standard discplate-assay activity of the A52688 factors is summarized. Activity is measured as the diameter (in mm) of the observed zone of inhibition; the diameter of the disc used in each case was 6.35 mm.

[17] = tested on: Bacillus subtilis; assay: standard disc-plate assay; type: cell-based; conditions: read-out: Zone Diameters

## [C-]#[N+]C(=CC1CCC(OC(=O)C=C(C)C)CC1)C(=CC1(OC(C)=O)C=CC(O)CC1)[N+]#[C-] (stereo not shown) [Factor G]
[1]; 0.50 mg/kg i.p., days 1, 5 and 9
  Percent Tumor Inhibition: 10%
[1]; 0.50 mg/kg i.p., days 1, 5 and 9, of 10 mice tested
  Toxic Deaths: 0
[1]; 0.70 mg/kg i.p., days 1, 5 and 9
  Percent Tumor Inhibition: 20%
[1]; 0.70 mg/kg i.p., days 1, 5 and 9, of 10 mice tested
  Toxic Deaths: 0
[1]; 1.00 mg/kg i.p., days 1, 5 and 9
  Percent Tumor Inhibition: 54%
[1]; 1.00 mg/kg i.p., days 1, 5 and 9, of 10 mice tested
  Toxic Deaths: 1
[1]; 1.40 mg/kg i.p., days 1, 5 and 9
  Percent Tumor Inhibition: 72%
[1]; 1.40 mg/kg i.p., days 1, 5 and 9, of 10 mice tested
  Toxic Deaths: 6
[1]; 2.00 mg/kg i.p., days 1, 5 and 9
  Percent Tumor Inhibition: 60%
[1]; 2.00 mg/kg i.p., days 1, 5 and 9, of 10 mice tested
  Toxic Deaths: 7
[1]; 2.80 mg/kg i.p., days 1, 5 and 9
  Percent Tumor Inhibition: toxic
[1]; 2.80 mg/kg i.p., days 1, 5 and 9, of 10 mice tested
  Toxic Deaths: 10
[2]; conc 0.1 mg/ml, disc 6.35 mm
  zone of inhibition at 100 µg/mL: 41 mm
[3]; conc 0.1 mg/ml, disc 6.35 mm
  zone of inhibition at 100 µg/mL: 23 mm
[4]; conc 0.1 mg/ml, disc 6.35 mm
  zone of inhibition at 100 µg/mL: 35 mm
[5]
  zone of inhibition at 100 µg/mL: 31 mm
[6]; conc 0.1 mg/ml, disc 6.35 mm, ^b overgrowth: factor B
  zone of inhibition at 100 µg/mL: 36 mm
[7]; conc 0.1 mg/ml, disc 6.35 mm, ^b overgrowth: factors A, C, E, F, G
  zone of inhibition at 100 µg/mL: 27 mm
[8]; conc 0.1 mg/ml, disc 6.35 mm, ^b overgrowth: factor C
  zone of inhibition at 100 µg/mL: 17 mm
[9]; conc 0.1 mg/ml, disc 6.35 mm
  zone of inhibition at 100 µg/mL: 32 mm
[10]; conc 0.1 mg/ml, disc 6.35 mm, ^b overgrowth: factor F
  zone of inhibition at 100 µg/mL: 10 mm
[11]; conc 0.1 mg/ml, disc 6.35 mm
  zone of inhibition at 100 µg/mL: 44 mm
[12]; conc 0.1 mg/ml, disc 6.35 mm
  zone of inhibition at 100 µg/mL: 33 mm
[13]
  LD50: 7.94 mg/kg
[14]; conc 0.1 mg/ml, disc 6.35 mm
  zone of inhibition at 100 µg/mL: 23 mm
[15]; conc 0.1 mg/ml, disc 6.35 mm, ^b overgrowth: factors B, C, F
  zone of inhibition at 100 µg/mL: 24 mm
[16]; conc 0.1 mg/ml, disc 6.35 mm, read-out: Zone Diameters
  zone of inhibition at 100 µg/mL: 20 mm
[16]; in minimal medium, conc 0.1 mg/ml, disc 6.35 mm, read-out: Zone Diameters
  zone of inhibition at 100 µg/mL: 18 mm
[17]; conc 0.1 mg/ml, disc 6.35 mm
  zone of inhibition at 100 µg/mL: 30 mm

## [C-]#[N+]C(=CC1=C[C@@H](O)[C@@H](O)CC1)C(=CC1CCC(OC(=O)C=C(C)C)CC1)[N+]#[C-] (relative stereo) [Factor E]
[1]; 0.25 mg/kg i.p., daily for 10 days
  Percent Tumor Inhibition: 22%
[1]; 0.25 mg/kg i.p., daily for 10 days, of 10 mice tested (9 for factor E)
  Toxic Deaths: 0
[1]; 0.50 mg/kg i.p., daily for 10 days
  Percent Tumor Inhibition: 74%
[1]; 0.50 mg/kg i.p., daily for 10 days, of 10 mice tested (8 for factor E)
  Toxic Deaths: 3
[1]; 1.00 mg/kg i.p., daily for 10 days
  Percent Tumor Inhibition: toxic
[1]; 1.00 mg/kg i.p., daily for 10 days, of 10 (factor E) or 9 (factor F) mice tested
  Toxic Deaths: 10
[2]
  zone of inhibition at 100 µg/mL: 34 mm
[3]
  zone of inhibition at 100 µg/mL: 17 mm
[4]
  zone of inhibition at 100 µg/mL: 29 mm
[5]; conc 0.1 mg/ml
  zone of inhibition at 100 µg/mL: 24 mm
[6]
  zone of inhibition at 100 µg/mL: 21 mm
[7]
  zone of inhibition at 100 µg/mL: 21 mm
[8]
  zone of inhibition at 100 µg/mL: 17 mm
[9]
  zone of inhibition at 100 µg/mL: 24 mm
[10]
  zone of inhibition at 100 µg/mL: 15 mm
[11]
  zone of inhibition at 100 µg/mL: 43 mm
[12]
  zone of inhibition at 100 µg/mL: 30 mm
[13]
  LD50: 3.54 mg/kg
[14]
  zone of inhibition at 100 µg/mL: 19 mm
[15]
  zone of inhibition at 100 µg/mL: 20 mm
[16]; read-out: Zone Diameters, conc 0.1 mg/ml, disc 6.35 mm
  zone of inhibition at 100 µg/mL: 18 mm
[16]; read-out: Zone Diameters, in minimal medium, conc 0.1 mg/ml, disc 6.35 mm
  zone of inhibition at 100 µg/mL: 16 mm
[17]
  zone of inhibition at 100 µg/mL: 29 mm
